Measurements as given in US4851420A, “2,6-diamino-3-halobenzylpyridines and processes for their manufacture as well as their use in pharmaceuticals” (ASTA Pharma Aktiengesellschaft, priority 1986, dated 1989).

Tests used:
[1] = acetic acid Writhing Test (analgesia), mouse; format: in vivo; conditions: p.a. (so in the source)
Excerpt: Acetic acid Writhing Test Koster et al., Fed. Proc., Volume 18, 412 (1959).

[2] = Randall-Selitto Test (analgesia), rat; format: in vivo; conditions: for ED50: po
Excerpt: Randall-Selitto Test G. Engelhardt, Arzneim. Forsch. 34, 992 et seq. (1984); Maruyama et al., Arzneim. Forsch. 28, 11 (1978).

Toxicity, LD50 rat = conditions: in vivo, po
Excerpt: (§1) Miller, Tainter, Proc. Soc. Exper. Biol. Med. 57, 261 (1944).

Toxicity, LD50 mouse = conditions: in vivo, po
Excerpt: as §1

[3] = general absence of side-effects (gastrointestinal disorders, gastric ulcers); format: in vivo; conditions: compared to known substances, e.g. non-steroidal anti-inflammatory agents with analgesic components

Row | Structure (SMILES) | ED50 [1] [mg/kg] | ED50 [2] [mg/kg] | LD50 (Toxicity, LD50 rat) [mg/kg] | LD50 (Toxicity, LD50 mouse) [mg/kg] | side-effects such as gastrointestinal disorders and gastric ulcers [3] | acetic acid Writhing Test Mouse, % effect at stated dose ([1]; at 0.5 mg/kg (printed 0.5/34%)) [%] | Randall-Selitto Test Rat, % effect at stated dose ([2]; p.o., at 0.5 mg/kg (printed 0.5/57%)) [%]
1 | Nc1ccc(Cc2ccc(F)cc2)c(N)n1 [D 17033, 2,6-diamino-3-(4-fluoro)benzylpyridine] | 1.4 | 0.2 | 1100 | 266 | general absence of side-effects | – | –
2 | Nc1ccc(Cc2ccccc2F)c(N)n1 [D 17746, 2,6-diamino-3-(2-fluoro)benzylpyridine] | – | – | – | 276 | – | – | –
3 | Nc1ccc(Cc2c(F)cccc2Cl)c(N)n1 [D 17748, 2,6-diamino-3-(2-fluoro-6-chloro)benzylpyridine] | – | – | – | 285 | – | 34 | 57
4 | CCOC(=O)Nc1ccc(NCc2ccc(F)cc2)nc1N [Flupirtin, reference compound] | 44.5 | 38.8 | 1660 | 633 | – | – | –
